Earlier results as cited in publication PMC10386743, “Application of Ligand- and Structure-Based Prediction Models for the Design of Alkylhydrazide-Based HDAC3 Inhibitors as Novel Anti-Cancer Compounds” (Pharmaceuticals, 2023).

Test system: recombinant human HDAC3
Conditions: recombinant human HDAC3, Boc-Lys(acetyl)-AMC; supplement Ref. [46]

pIC50 HDAC3 (HDAC3 experimental pIC50)	SMILES
9.24	CCCNNC(=O)c1ccc(CNC(=O)c2cc3cc(OC)ccc3[nH]2)cc1 [Compound 41]
9.08	CCCNNC(=O)c1ccc(CNC(=O)c2cc3cc(F)ccc3o2)cc1 [Compound 7]
8.84	CCCNNC(=O)c1ccc(CNC(=O)c2nc3ccccc3[nH]2)cc1 [Compound 14]
9.21	CCCNNC(=O)c1ccc(CNC(=O)c2cc3cc(Cl)ccc3o2)cc1 [Compound 5]
8.75	CCCNNC(=O)c1ccc(CNC(=O)c2cnc3ccccc3c2)cc1 [Compound 18]
8.99	CCCNNC(=O)c1ccc(CNC(=O)c2ccc3cnccc3c2)cc1 [Compound 11]
9.36	CCCNNC(=O)c1ccc(CNC(=O)c2cc3ccccc3[nH]2)cc1 [Compound 4]
9.21	CCCNNC(=O)c1ccc(CNC(=O)c2cc3cc(Br)ccc3o2)cc1 [Compound 42]
8.81	CCCNNC(=O)c1ccc(CNC(=O)c2ccc3ccncc3c2)cc1 [Compound 16]
8.83	CCCNNC(=O)c1ccc(CNC(=O)c2cc3ccccc3cn2)cc1 [Compound 15]
9.18	CCCNNC(=O)c1ccc(CNC(=O)c2cc3cc(Cl)ccc3[nH]2)cc1 [Compound 6]
9.55	CCCNNC(=O)c1ccc(CNC(=O)c2cc3cc(OC)ccc3o2)cc1 [Compound 1]
9.07	C#CCOc1ccc2oc(C(=O)NCc3ccc(C(=O)NNCCC)cc3)cc2c1 [Compound 8]
9.29	CCCNNC(=O)c1ccc(CNC(=O)c2cc3cc(O)ccc3o2)cc1 [Compound 40]
9.05	CCCNNC(=O)c1ccc(CNC(=O)c2ccc3ccccc3n2)cc1 [Compound 9]
8.88	CCCNNC(=O)c1ccc(CNC(=O)c2nc3ccccc3s2)cc1 [Compound 12]
8.69	CCCNNC(=O)c1ccc(CNC(=O)c2cc3cnccc3cn2)cc1 [Compound 19]
8.79	CCCNNC(=O)c1ccc(CNC(=O)c2cc3cc(F)ccc3[nH]2)cc1 [Compound 17]
8.88	CCCNNC(=O)c1ccc(CNC(=O)c2cc3cc(Br)ccc3[nH]2)cc1 [Compound 13]

SMILES	pIC50 HDAC3 (HDAC3 experimental pIC50)
CCCNNC(=O)c1ccc(CNC(=O)c2cc3ccccc3o2)cc1 [Compound 3]	9.42

Same assay, conditions: recombinant human HDAC3, Boc-Lys(acetyl)-AMC; supplement prints Ref. [48]

SMILES	pIC50 HDAC3 (HDAC3 experimental pIC50)
CCCNNC(=O)/C=C/c1ccc(CNCCc2c(C)[nH]c3ccccc23)cc1 [Compound 2]	9.55
COC(=O)CCNNC(=O)/C=C/c1ccc(CNCCc2c(C)[nH]c3ccccc23)cc1 [Compound 34]	6.51
CCCNNC(=O)/C=C/c1ccc(CN(CCc2c(C)[nH]c3ccccc23)C(=O)OC(C)(C)C)cc1 [Compound 44]	7.78
CCCNNC(=O)c1cccc(CN(CCc2c(C)[nH]c3ccccc23)C(=O)OC(C)(C)C)c1 [Compound 57]	5.30
CCCNNC(=O)c1ccc(CN(CCc2c(C)[nH]c3ccccc23)C(=O)OC(C)(C)C)cc1 [Compound 43]	7.90
CCCNNC(=O)c1cccc(CNCCc2c(C)[nH]c3ccccc23)c1 [Compound 36]	6.17
Cc1[nH]c2ccccc2c1CCNCc1ccc(/C=C/C(=O)NNCCN)cc1 [Compound 59]	5.28
Cc1[nH]c2ccccc2c1CCNCc1ccc(/C=C/C(=O)NNCCC#N)cc1 [Compound 45]	7.46
CCCNNC(=O)c1ccc(CN(Cc2ccccc2)C(=O)OC(C)(C)C)cc1 [Compound 49]	7.11

The next lines start with the values.

pIC50 HDAC3 (HDAC3 experimental pIC50)	SMILES
7.70	CCCNNC(=O)c1ccc(CNCCc2c(C)[nH]c3ccccc23)cc1 [Compound 26]
7.31	CCCNNC(=O)c1ccc(NC(=O)c2ccccc2)cc1 [Compound 46]
7.01	CCCNNC(=O)c1ccc(CNCc2ccccc2)cc1 [Compound 30]
7.61	CCCNNC(=O)c1ccc(OCc2ccccc2)cc1 [Compound 27]
8.21	CCCNNC(=O)c1ccc(NCc2ccccc2)cc1 [Compound 22]

Same assay, conditions: recombinant human HDAC3, Boc-Lys(acetyl)-AMC; supplement prints Ref. [50]

SMILES	pIC50 HDAC3 (HDAC3 experimental pIC50)
CCCCNNC(=O)c1ccc(Oc2ccccc2)cc1 [Compound 52]	6.51
CCCCNNC(=O)c1cccnc1 [Compound 39]	5.81
CCCCNNC(=O)c1ccco1 [Compound 58]	5.30
O=C(NCc1ccc(C(=O)NNCC2CCC2)cc1)c1ccccc1 [Compound 50]	7.07
CCCCNNC(=O)/C=C/c1ccccc1 [Compound 33]	6.53
CCCCNNC(=O)c1ccc(OC)cc1 [Compound 31]	6.80
CCCCNNC(=O)c1ccc2ccccc2c1 [Compound 37]	6.05
O=C(NCc1ccc(C(=O)NNCC2CC2)cc1)c1ccccc1 [Compound 29]	7.40
CCCCNNC(=O)c1cc2ccccc2o1 [Compound 54]	5.87
CCCCNNC(=O)c1cccs1 [Compound 38]	6.04
CC/C=N/NC(=O)c1ccc(CNC(=O)c2ccccc2)cc1 [Compound 62]	< 5.00
CCCCNNC(=O)c1cccc2ccccc12 [Compound 60]	< 5.00
CCCCNNC(=O)CCc1ccccc1 [Compound 56]	5.72

Now from value to compound:

pIC50 HDAC3 (HDAC3 experimental pIC50)	SMILES
5.81	C/C=C/CNNC(=O)c1ccc(CNC(=O)c2ccccc2)cc1 [Compound 55]
< 5.00	CCCCCCCCCCNNC(=O)c1ccc(CNC(=O)c2ccccc2)cc1 [Compound 63]
7.16	O=C(NCc1ccc(C(=O)NNCCC(F)(F)F)cc1)c1ccccc1 [Compound 48]
6.73	CCNNC(=O)c1ccc(CNC(=O)c2ccccc2)cc1 [Compound 51]
5.96	CCCCCCCCNNC(=O)c1ccc(CNC(=O)c2ccccc2)cc1 [Compound 53]
< 5.00	CC(C)NNC(=O)c1ccc(CNC(=O)c2ccccc2)cc1 [Compound 61]
8.07	CCCCNNC(=O)c1ccc(CNC(=O)c2ccccc2)cc1 [Compound 23]
6.73	CCCCCCNNC(=O)c1ccc(CNC(=O)c2ccccc2)cc1 [Compound 32]
7.71	CCNNC(=O)c1ccc(CNC(=O)/C=C/c2ccccc2)cc1 [Compound 25]
6.25	CCCCCCCNNC(=O)c1ccc(CNC(=O)c2ccccc2)cc1 [Compound 35]
8.46	CCCNNC(=O)c1ccc(CNC(=O)c2ccccc2)cc1 [Compound 20]
8.44	CCCCNNC(=O)c1ccc(CNC(=O)/C=C/c2ccccc2)cc1 [Compound 21]
7.49	CCCCCNNC(=O)c1ccc(CNC(=O)/C=C/c2ccccc2)cc1 [Compound 28]
7.73	CCCCCNNC(=O)c1ccc(CNC(=O)c2ccccc2)cc1 [Compound 24]
7.17	CCCCNNC(=O)c1ccc(-c2ccccc2)cc1 [Compound 47]
9.02	CCCNNC(=O)c1ccc(CNC(=O)/C=C/c2ccccc2)cc1 [Compound 10]

Test system: HDAC3
Conditions: 1 µM

SMILES	HDAC3 inhibition @1 µM
CCCCCCNNC(=O)c1ccc(C)c(NCc2ccccc2)c1 [Compound 71]	9%@1 µM
CCCNNC(=O)c1cnc(NCCc2ccccc2)nc1 [Compound 74]	41%@1 µM

Same assay, conditions: 10uM

SMILES	HDAC3 inhibition @10uM
CCCCCCNNC(=O)c1ccc(C)c(NCc2ccccc2)c1 [Compound 71]	42%
CCCNNC(=O)c1cnc(NCCc2ccccc2)nc1 [Compound 74]	87%

Same assay, conditions: experimentally determined

SMILES	activity on HDAC3 (in words)
CCCCCCNNC(=O)c1ccc(C)c(NCc2ccccc2)c1 [Compound 71]	did not show significant activity
CCCNNC(=O)c1cnc(NCCc2ccccc2)nc1 [Compound 74]	did not show significant inhibitory activity
CCCNNC(=O)c1ccc(CNC(C)=O)cc1 [Compound 68]	moderate activity
CCCCCCNNC(=O)c1cccc(NCc2ccccc2)c1 [Compound 70]	did not show significant activity

Same assay, conditions: newly designed compounds

SMILES	pIC50 HDAC3 (HDAC3 experimental pIC50)
CCCCNNC(=O)c1cnc(NCc2ccccc2)nc1 [Compound 73]	6.70
CCCNNC(=O)c1cnc(NCc2ccc(Cl)cc2)nc1 [Compound 77]	7.43
CCCNNC(=O)c1cnc(NCc2ccccc2Cl)nc1 [Compound 76]	7.22
CCCCCCNNC(=O)c1cnc(NCCc2ccccc2)nc1 [Compound 82]	<5.00
CCCNNC(=O)c1cnc(NCc2cccc3ccccc23)nc1 [Compound 75]	7.09
CCCCCCNNC(=O)c1cnc(NCc2cccc3ccccc23)nc1 [Compound 81]	<5.00
CCCCCCNNC(=O)c1cnc(NCc2ccccc2)nc1 [Compound 83]	5.52
CCCCCCNNC(=O)c1cccc(NCc2ccccc2)c1 [Compound 70]	<5.00
CCCNNC(=O)c1cnc(NCc2cc(Cl)ccc2Cl)nc1 [Compound 78]	7.24
CCCCCCNNC(=O)c1cnc(N2CCN(CCc3c[nH]c4ccccc34)CC2)nc1 [Compound 88]	6.00

Now from value to compound:

pIC50 HDAC3 (HDAC3 experimental pIC50)	SMILES
7.04	CCCNNC(=O)c1ccc(-c2ccc(CNC(C)=O)cc2)cc1 [Compound 64]
5.80	CCCNNC(=O)c1ccc(CNC(C)=O)cc1 [Compound 68]
6.96	CCCNNC(=O)c1cnc(NCc2ccc(CNC(C)=O)cc2)nc1 [Compound 80]
5.82	CCCCCNNC(=O)c1ccc(-c2ccc(CNC(C)=O)cc2)cc1 [Compound 66]
6.46	CCCCNNC(=O)c1ccc(-c2ccc(CNC(C)=O)cc2)cc1 [Compound 65]
